From PubChem BioAssay AID248 (DTP/NCI, 2004)
Where “and” joins values, the source holds several entries; their conditions need not be identical. Identical values can stand only once. Toxic doses and inconclusive results are not listed. No stated cut-off is given here; in the data, active means T/C of 150% or more; inactive means T/C below 125%.

System: L1210 leukemia ip in BDF1 mice, survival T/C
Assay: NCI In Vivo Anticancer Drug Screen. Data for tumor model L1210 Leukemia (intraperitoneal) in B6D2F1 (BDF1) mice
Conditions: endpoint: mean survival time, higher = longer survival
Outline: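 Read-out is survival time, reported as the treated-group measurement over the vehicle-control measurement.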

[1] = dose: 100.0 mg/kg/injection, schedule: Q01DX001 (ip), vehicle: other
[2] = dose: 200.0 mg/kg/injection, schedule: Q01DX001 (ip), vehicle: other
[3] = dose: 400.0 mg/kg/injection, schedule: Q01DX001 (ip), vehicle: other
[4] = dose: 100.0 mg/kg/injection, schedule: Q04DX002 (ip), vehicle: Klucel (hydroxypropylcellulose) (HPC)
[5] = dose: 200.0 mg/kg/injection, schedule: Q04DX002 (ip), vehicle: Klucel (hydroxypropylcellulose) (HPC)
[6] = dose: 50.0 mg/kg/injection, schedule: Q01DX009 (ip), vehicle: saline with Tween-80
[7] = dose: 100.0 mg/kg/injection, schedule: Q04DX003 (ip), vehicle: saline with Tween-80
[8] = dose: 200.0 mg/kg/injection, schedule: Q04DX003 (ip), vehicle: saline with Tween-80
[9] = dose: 100.0 mg/kg/injection, schedule: Q01DX009 (ip), vehicle: saline
[10] = dose: 100.0 mg/kg/injection, schedule: Q04DX003 (ip), vehicle: saline
[11] = dose: 200.0 mg/kg/injection, schedule: Q01DX009 (ip), vehicle: saline
[12] = dose: 200.0 mg/kg/injection, schedule: Q04DX003 (ip), vehicle: saline
[13] = dose: 400.0 mg/kg/injection, schedule: Q04DX003 (ip), vehicle: saline
[14] = dose: 100.0 mg/kg/injection, schedule: Q04DX003 (ip), vehicle: Klucel (hydroxypropylcellulose) (HPC)
[15] = dose: 200.0 mg/kg/injection, schedule: Q04DX003 (ip), vehicle: Klucel (hydroxypropylcellulose) (HPC)

Measured: T/C

N#CCCOC(=O)CCC(=O)OCCC#N
inactive: [1] 104 % of control | [2] 100 % of control | [3] 102 % of control

O=[N+]([O-])c1ccc(F)c(Cl)c1F
inactive: dose: 10.0 mg/kg/injection, schedule: Q04DX003 (ip), vehicle: Klucel (hydroxypropylcellulose) (HPC) 103 % of control | dose: 20.0 mg/kg/injection, schedule: Q04DX003 (ip), vehicle: Klucel (hydroxypropylcellulose) (HPC) 106 % of control | dose: 40.0 mg/kg/injection, schedule: Q04DX003 (ip), vehicle: Klucel (hydroxypropylcellulose) (HPC) 99 % of control

NC(=O)C(=Cc1ccc([N+](=O)[O-])s1)C(N)=O
inactive: [4] 107 % of control | [5] 112 % of control

C=C(Cl)c1c(C)cc(C)cc1C
inactive: dose: 25.0 mg/kg/injection, schedule: Q01DX009 (ip), vehicle: saline with Tween-80 98 % of control | [6] 104 % of control | dose: 100.0 mg/kg/injection, schedule: Q01DX009 (ip), vehicle: saline with Tween-80 98 % of control and 88 % of control | [7] 97 % of control | [8] 86 % of control

CC(=O)OC1CC2(O)C(CCC3(C)C(c4ccc(=O)oc4)CCC32O)C2(C)C1=CC(O)C1OC12 (stereo not drawn)
inactive: dose: 0.06 mg/kg/injection, schedule: Q01DX001 (sc), vehicle: steriod suspending solution 105 % of control | dose: 0.13 mg/kg/injection, schedule: Q01DX001 (sc), vehicle: steriod suspending solution 103 % of control | dose: 0.25 mg/kg/injection, schedule: Q01DX001 (sc), vehicle: steriod suspending solution 105 % of control | dose: 0.5 mg/kg/injection, schedule: Q01DX001 (sc), vehicle: steriod suspending solution 100 % of control and 102 % of control | dose: 1.0 mg/kg/injection, schedule: Q01DX001 (sc), vehicle: steriod suspending solution 96 % of control | dose: 2.0 mg/kg/injection, schedule: Q01DX001 (sc), vehicle: steriod suspending solution 104 % of control

O/N=c1/cc(-c2ccc(Cl)cc2)ss1
inactive: [9] 91 % of control | [10] 93 % of control | [11] 89 % of control | [12] 95 % of control | dose: 400.0 mg/kg/injection, schedule: Q01DX009 (ip), vehicle: saline 96 % of control | [13] 97 % of control

Cc1c(-c2ccccc2)cc(O)cc1-c1ccccc1
inactive: dose: 25.0 mg/kg/injection, schedule: Q01DX009 (ip), vehicle: saline 98 % of control | dose: 50.0 mg/kg/injection, schedule: Q01DX009 (ip), vehicle: saline 98 % of control | [9] 105 % of control | [11] 100 % of control

Cc1ccc(C(=O)C2C3C=CC(C3)C2C(=O)c2ccc(C)cc2)cc1 (stereo not drawn)
inactive: dose: 75.0 mg/kg/injection, schedule: Q01DX009 (ip), vehicle: Klucel (hydroxypropylcellulose) (HPC) 95 % of control | dose: 150.0 mg/kg/injection, schedule: Q01DX009 (ip), vehicle: Klucel (hydroxypropylcellulose) (HPC) 90 % of control | dose: 300.0 mg/kg/injection, schedule: Q01DX009 (ip), vehicle: Klucel (hydroxypropylcellulose) (HPC) 95 % of control

CN(c1ccccc1)[N+](=O)[O-]
inactive: [1] 94 % of control | [2] 97 % of control | [3] 97 % of control

OC(c1ccccc1)(c1ccccc1)c1ccccc1Cl
inactive: [10] 94 % of control | [12] 91 % of control | [13] 91 % of control

O=S(=O)(Nc1nccs1)c1ccc(N(CCCl)CCCl)cc1
inactive: dose: 50.0 mg/kg/injection, schedule: Q01DX009 (ip), vehicle: Klucel (hydroxypropylcellulose) (HPC) 116 % of control

CCOC(=O)CC1NCCC2C1CCC(OC)C2OC (stereo not drawn)
inactive: [6] 106 % of control | [14] 98 % of control | dose: 200.0 mg/kg/injection, schedule: Q01DX009 (ip), vehicle: saline with Tween-80 95 % of control | [15] 104 % of control

CC(=O)OCCSCCc1ccccc1
inactive: dose: 62.5 mg/kg/injection, schedule: Q01DX009 (ip), vehicle: saline with Tween-80 97 % of control | dose: 125.0 mg/kg/injection, schedule: Q01DX009 (ip), vehicle: saline with Tween-80 113 % of control | dose: 250.0 mg/kg/injection, schedule: Q01DX009 (ip), vehicle: saline with Tween-80 94 % of control

CSCCC(NC(=O)C(C)N)C(=O)O (stereo not drawn)
inactive: dose: 100.0 mg/kg/injection, schedule: Q01DX001 (ip), vehicle: saline 90 % of control | dose: 200.0 mg/kg/injection, schedule: Q01DX001 (ip), vehicle: saline 92 % of control | dose: 400.0 mg/kg/injection, schedule: Q01DX001 (ip), vehicle: saline 101 % of control

O=c1[nH]cc(Br)c2sccc12
inactive: [7] 100 % of control | [8] 105 % of control

CCCCCCCCCCCCCCCCCC(=O)OC(C(O)C=O)C(O)C(O)CO (stereo not drawn)
inactive: [4] 95 % of control | [5] 109 % of control | dose: 400.0 mg/kg/injection, schedule: Q04DX002 (ip), vehicle: Klucel (hydroxypropylcellulose) (HPC) 95 % of control

O=C(COc1ccc(Cl)cc1C(=O)O)NCc1cccc2ccccc12
inactive: [14] 97 % of control | [15] 98 % of control | dose: 400.0 mg/kg/injection, schedule: Q04DX003 (ip), vehicle: Klucel (hydroxypropylcellulose) (HPC) 100 % of control

O=c1ccnc(SCc2ccccc2Cl)[nH]1
inactive: dose: 100.0 mg/kg/injection, schedule: Q01DX Z (ip), vehicle: methylcellulose (MC) 91 % of control | dose: 200.0 mg/kg/injection, schedule: Q01DX Z (ip), vehicle: methylcellulose (MC) 91 % of control

Cc1nc2ccccc2[nH]1
inactive: dose: 25.0 mg/kg/injection, schedule: Q04DX002 (ip), vehicle: Klucel (hydroxypropylcellulose) (HPC) 109 % of control | dose: 50.0 mg/kg/injection, schedule: Q04DX002 (ip), vehicle: Klucel (hydroxypropylcellulose) (HPC) 105 % of control | [4] 105 % of control

CCOC(=O)/C=C(C)/C=C/C1=C(C)CCCC1(C)C
inactive: [7] 102 % of control | [8] 96 % of control | dose: 400.0 mg/kg/injection, schedule: Q04DX003 (ip), vehicle: saline with Tween-80 108 % of control

NC(N)=NC1CCCCC1
inactive: [10] 102 % of control | [12] 112 % of control

COc1cc2c(cc1OC)C1(CCCl)C3CC4C(=CCOC5CC(=O)N2C1C54)CN3C(=O)Cc1ccccc1 (stereo not drawn)
inactive: dose: 75.0 mg/kg/injection, schedule: Q01DX001 (ip), vehicle: saline 100 % of control
